Laboratory results taken from PubChem BioAssay AID256 (DTP/NCI, 2004).
Toxic doses and inconclusive results are not listed. Rule for the calls: active = survival T/C of 150% or more; inactive = T/C below 125% in these data.

Tested on: CD2F1 mice, L1210 leukemia ip, survival T/C
Assay: NCI In Vivo Anticancer Drug Screen. Data for tumor model L1210 Leukemia (intraperitoneal) in CD2F1 (CDF1) mice
Settings: endpoint: mean survival time, higher = longer survival
Method in brief: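 Activity against a transplanted murine tumor was judged by comparing the compound group with a vehicle group. The outcome in the treated animals was divided by that in the controls.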

[1] = dose: 6.25 mg/kg/injection, schedule: Q04DX002 (ip), vehicle: saline with Tween-80
[2] = dose: 12.5 mg/kg/injection, schedule: Q04DX002 (ip), vehicle: saline with Tween-80
[3] = dose: 100.0 mg/kg/injection, schedule: Q04DX003 (ip), vehicle: saline with Tween-80
[4] = dose: 200.0 mg/kg/injection, schedule: Q04DX003 (ip), vehicle: saline with Tween-80
[5] = dose: 400.0 mg/kg/injection, schedule: Q04DX003 (ip), vehicle: saline with Tween-80

Measured: T/C

O=C(Cc1ccccc1)NCc1ccccc1
inactive: dose: 6.25 mg/kg/injection, schedule: Q01DX001 (ip), vehicle: saline 101 % of control | dose: 12.5 mg/kg/injection, schedule: Q01DX001 (ip), vehicle: saline 94 % of control | dose: 25.0 mg/kg/injection, schedule: Q01DX001 (ip), vehicle: saline 101 % of control

CS(=O)(=O)OCC(/C=C/C(COS(C)(=O)=O)OS(C)(=O)=O)OS(C)(=O)=O (stereo unspecified)
active: dose: 100.0 mg/kg/injection, schedule: Q01DX009 (ip), vehicle: Klucel (hydroxypropylcellulose) (HPC) 150 % of control | dose: 200.0 mg/kg/injection, schedule: Q01DX009 (ip), vehicle: Klucel (hydroxypropylcellulose) (HPC) 175 % of control

O=C(O)CCC(=O)c1ccc2c(c1)CCCC2
inactive: dose: 1.56 mg/kg/injection, schedule: Q04DX002 (ip), vehicle: saline with Tween-80 97 % of control | dose: 3.13 mg/kg/injection, schedule: Q04DX002 (ip), vehicle: saline with Tween-80 97 % of control | [1] 97 % of control | [2] 104 % of control

O=[N+]([O-])c1cc(Cl)ccc1Nc1ccccc1
inactive: dose: 100.0 mg/kg/injection, schedule: Q04DX003 (ip), vehicle: Klucel (hydroxypropylcellulose) (HPC) 102 % of control | dose: 200.0 mg/kg/injection, schedule: Q04DX003 (ip), vehicle: Klucel (hydroxypropylcellulose) (HPC) 102 % of control | dose: 400.0 mg/kg/injection, schedule: Q04DX003 (ip), vehicle: Klucel (hydroxypropylcellulose) (HPC) 98 % of control

c1ccc(OCCSc2ccccc2)cc1
inactive: dose: 100.0 mg/kg/injection, schedule: Q01DX001 (ip), vehicle: saline 102 % of control | dose: 200.0 mg/kg/injection, schedule: Q01DX001 (ip), vehicle: saline 104 % of control | dose: 400.0 mg/kg/injection, schedule: Q01DX001 (ip), vehicle: saline 104 % of control

CC1CN(CCC#N)CC(C)O1 (stereo unspecified)
inactive: dose: 100.0 mg/kg/injection, schedule: Q01DX009 (ip), vehicle: saline 105 % of control | dose: 100.0 mg/kg/injection, schedule: Q04DX003 (ip), vehicle: saline 95 % of control | dose: 200.0 mg/kg/injection, schedule: Q01DX009 (ip), vehicle: saline 104 % of control | dose: 200.0 mg/kg/injection, schedule: Q04DX003 (ip), vehicle: saline 104 % of control | dose: 400.0 mg/kg/injection, schedule: Q01DX009 (ip), vehicle: saline 104 % of control | dose: 400.0 mg/kg/injection, schedule: Q04DX003 (ip), vehicle: saline 104 % of control

O=C(c1ccccc1)C(C(c1ccccc1)N1CCOCC1)N1CCOCC1 (stereo unspecified)
inactive: [3] 90 % of control | dose: 200.0 mg/kg/injection, schedule: Q01DX009 (ip), vehicle: saline with Tween-80 96 % of control | [4] 92 % of control | dose: 400.0 mg/kg/injection, schedule: Q01DX009 (ip), vehicle: saline with Tween-80 93 % of control | [5] 97 % of control

S=C(CSc1ccccc1)Nc1cccc2ccccc12
inactive: [3] 101 % of control | [4] 91 % of control | [5] 93 % of control

O=C1NCC(C2CC2)(C2CC2)O1
inactive: dose: 100.0 mg/kg/injection, schedule: Q04DX002 (ip), vehicle: saline with Tween-80 108 % of control | dose: 200.0 mg/kg/injection, schedule: Q04DX002 (ip), vehicle: saline with Tween-80 100 % of control | dose: 400.0 mg/kg/injection, schedule: Q04DX002 (ip), vehicle: saline with Tween-80 100 % of control

Cc1cccc(OCC2=NCCN2)c1C
inactive: [1] 102 % of control | [2] 109 % of control | dose: 25.0 mg/kg/injection, schedule: Q04DX002 (ip), vehicle: saline with Tween-80 97 % of control

CNC(=O)/C(=C(\[O-])NC)[S+](C)(C)=O
inactive: [3] 101 % of control | [4] 100 % of control | [5] 100 % of control

CCOC(=O)N(N=O)c1ccc2c(c1)C(=O)c1ccccc1-2
inactive: dose: 100.0 mg/kg/injection, schedule: Q01DX001 (ip), vehicle: carboxymethylcellulose (CMC) 103 % of control | dose: 200.0 mg/kg/injection, schedule: Q01DX001 (ip), vehicle: carboxymethylcellulose (CMC) 97 % of control | dose: 400.0 mg/kg/injection, schedule: Q01DX001 (ip), vehicle: carboxymethylcellulose (CMC) 94 % of control
